Series [1] deals with Staphylococcus aureus SA161 (HA-MRSA, tet(M)). Nature of the series: MIC assay. Type of series: cell-based.
Series [2] has as its system PA 689. Nature of the series: MIC assay. Conditions: read-out: MIC PA 689. Type of series: cell-based.
In series [3] the test system is PA 884 35151. Nature of the series: MIC assay. Type of series: cell-based. The settings on record: read-out: MIC PA 884 35151.
Series [4] deals with Escherichia coli EC107 (ATCC 25922). The series is described as follows: MIC assay. Conditions: ATCC25922, read-out: MIC EC 107 25922, control compounds. The class given is cell-based.
Series [5] relates to Enterococcus faecium EF404 (blood isolate, tet(M)). The series is described as follows: MIC assay. Type of series: cell-based. The settings on record: read-out: MIC EF 404 tetM, control compounds.
Series [6] concerns Klebsiella pneumoniae KP153 (tet(A), MDR, ESBL+).
Series [7] has as its system Klebsiella pneumoniae KP109 (ATCC 13883). The series is described as follows: MIC assay. The class given is cell-based.
For series [8], the system named is Klebsiella pneumoniae KP457 (2009 ESBL+, CTX-M, OXA).
The subject of series [9] is Streptococcus pneumoniae SP160 (tet(M)). Nature of the series: MIC assay. The class given is cell-based.
The subject of series [10] is Klebsiella pneumoniae KP153 (tet(A), MDR, ESBL+). Nature of the series: microbe, parasite or virus in culture. Conditions: read-out: MIC KP153 tetA.

In brackets after ≈: the same amount, converted by molar mass. Read-outs that look alike come from different tables or passages of the source.

Turning to `CN(C)c1cc(NC(=O)CNC(C)(C)C)c(O)c2c1C[C@H]1C[C@H]3[C@H](N(C)C)C(O)=C(C(N)=O)C(=O)[C@@]3(O)C(O)=C1C2=O` [Tigecycline, tigecycline], the MIC in [1] (Staphylococcus aureus, MRSA, read-out: MIC SA 161 tetM, control compounds) came to 0.1 µg/mL (≈ 0.171 µM); in series [2], 1 µg/mL (≈ 1.71 µM); in series [3], 0.063 µg/mL (≈ 0.108 µM); in series [4], 0.02 µg/mL (≈ 0.0341 µM); in [5] it was 0.06 µg/mL (≈ 0.102 µM); in series [7] (ATCC13883, read-out: MIC KP109 13883) it was 0.125 µg/mL (≈ 0.213 µM). Moreover, the MIC was determined as 0.2 µg/mL (≈ 0.341 µM) in series [9] (read-out: MIC SP 160 tetM, Table 5, control compounds) and 0.03 µg/mL (≈ 0.0512 µM) in [9] (read-out: MIC SP 160 tetM, control compounds). Besides, in series [6] (Table 5, control compounds), the “MIC KP 153 tetA” value stood at 1 µg/mL (≈ 1.71 µM). The “MIC KP 457 CTX-M-15” value in series [8] (Table 6, control compounds) was 1 µg/mL (≈ 1.71 µM); in [8] (Table 7, control compounds), 1 µg/mL (≈ 1.71 µM).
Take `CN(C)c1ccc(O)c2c1C[C@H]1C[C@H]3[C@H](N(C)C)C(O)=C(C(N)=O)C(=O)[C@@]3(O)C(O)=C1C2=O` [Minocycline, minocycline]: the “MIC SA 161 tetM” value in series [1] (control compounds) turned out to be 8 µg/mL (≈ 17.5 µM). Further, the MIC in [2] (Table 6, control compounds) turned out to be 8 µg/mL (≈ 17.5 µM); in series [3] (Table 6, control compounds), 1 µg/mL (≈ 2.19 µM); in series [7] (ATCC13883, Table 4, control compounds, read-out: MIC KP109 13883), 1 µg/mL (≈ 2.19 µM); in [10], 8 µg/mL (≈ 17.5 µM). Also, the “MIC KP 153 tetA” value in series [6] was determined as 8 µg/mL (≈ 17.5 µM). Moreover, in series [8], the “MIC KP 457 CTX-M-15” value came out at 8 µg/mL (≈ 17.5 µM).
On to `CN(C)[C@@H]1C(O)=C(C(N)=O)C(=O)[C@@]2(O)C(O)=C3C(=O)c4c(O)cccc4C[C@H]3C[C@@H]12` [Sancycline, sancycline], for which the results for the MIC in [2], in series [3] and in series [10] were 16 µg/mL (≈ 38.6 µM), 4 µg/mL (≈ 9.65 µM) and 32 µg/mL (≈ 77.2 µM), respectively. Moreover, the “MIC KP 153 tetA” value in series [6] (Table 5, control compounds) stood at 32 µg/mL (≈ 77.2 µM). Moreover, the “MIC KP 457 CTX-M-15” value in [8] was 8 µg/mL (≈ 19.3 µM).

For the origin of these results see patent publication US10913712B2, “Tetracycline compounds” (Tetraphase Pharmaceuticals, Inc., priority 2012, dated 2021).
